Common to all, as to test: NCI tumour cell line growth inhibition, 48 h
In assay [1] the test system is NCI-H460 lung.
The test system of assay [2] is SNB-75 CNS.
The test system of assay [3] is CCRF-CEM leukemia.
The test system of assay [4] is 786-0 renal.
Assay [5] has as its system SK-MEL-2 melanoma.
The subject of assay [6] is OVCAR-3 ovarian.
Assay [7] concerns SK-MEL-5 melanoma.
In assay [8] the test system is OVCAR-5 ovarian.
Assay [9] relates to NCI/ADR-RES ovarian.
Assay [10] has as its system A498 renal.

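Where inhibition never reached the appropriate level, the endpoint shown equals the highest concentration tested. Otherwise, values were interpolated linearly from a five-concentration, 48-hour dose response in 96-well plates. Here, GI50 denotes the concentration required for 50% inhibition of growth. TGI denotes the concentration required for complete inhibition of growth.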 Some results are limits rather than exact numbers.

For the compound `COc1cccc(-c2nc3sccn3c2-c2ccnc(NCCCNS(=O)(=O)c3cccc(F)c3)c2)c1`, the GI50 in [1] was 4.04 µM; in assay [2], 1.73 µM; in assay [3], 2.26 µM; in [4], 4.49 µM; in assay [5] it was 2.18 µM; in assay [6], 3.06 µM. The results for the GI50 in [7], in [8] and in assay [9] were 1.56 µM, 4.41 µM and 2.09 µM, respectively. The TGI is above 100 µM in assay [1]; 5.47 µM in [2]; above 100 µM in assay [3]; above 100 µM in assay [4]; 5.44 µM in assay [5]; above 100 µM in assay [6]. For the same compound, the TGI is 3.63 µM in assay [7], above 100 µM in [8] and 6.41 µM in assay [9].

With `Cc1cc(=O)oc2cc(OC(=O)N(C)C)c(Cl)cc12`, the TGI in [1], in assay [3], in assay [4], in [5], in assay [6] and in assay [7] was above 100 µM in each case. In addition, the TGI in [8], in assay [10] and in assay [9] was above 100 µM in each case.

Take `COc1cc(OC)cc(N(CCNC(C)C)c2ccc3ncc(-c4cnn(C)c4)nc3c2)c1`: the GI50 in assay [1] is 5.25 µM; in assay [2], 0.523 µM; in assay [3], 8.48 µM; in assay [4], 2.9 µM; in assay [5], 7.31 µM; in [6], 5.6 µM. Further, the GI50 in assay [8] was 5.42 µM; in assay [9], 5.8 µM. The TGI in assay [1] was determined as 18.1 µM; in [2], 4.2 µM; in [3], 47 µM; in [4], 13.6 µM; in assay [5], 25 µM; in assay [6] it was 20.2 µM. The TGI turned out to be 19.8 µM in assay [8], 3.5 µM in assay [10] and 22 µM in assay [9].

Turning to `C=C(c1ccc2nc(NC(=O)OC)[nH]c2c1)c1cccs1`, the TGI in assay [1] is above 100 µM; in assay [4], above 100 µM; in assay [5] it was above 100 µM; in assay [7], above 20.7 µM; in [8], above 100 µM; in assay [10], 2.71 µM. The same compound came in with a TGI in [9] of 0.87 µM.

Take `Cc1nn(-c2nc3ccccc3[nH]2)c(N)c1-c1ccc(Cl)cc1`: the GI50 in assay [1] was 2.96 µM; in assay [3] it was 2.92 µM; in assay [4] it was 8.31 µM; in [5], 5.88 µM; in [6] it was 7.66 µM; in assay [7], 4.08 µM. Moreover, the GI50 in assay [8] was 46.7 µM; in assay [10], 3.02 µM; in assay [9], 4.84 µM. Further, the TGI in [1], in assay [3], in assay [4], in [5], in [6] and in assay [7] was above 100 µM each time. In addition, the TGI in assay [8], in assay [10] and in assay [9] was above 100 µM throughout.

With `Cc1ccc(S(=O)(=O)NC(=O)C2C(=O)CC3(CCCCC3)CC2=O)cc1`, the TGI was 74.9 µM in [1]; above 100 µM in [2]; 69.8 µM in assay [3]; above 100 µM in [4]; 92.2 µM in assay [6]; 67 µM in assay [7]. The TGI in assay [8] is above 100 µM; in assay [10] it was 80.6 µM; in assay [9], 37.9 µM.

As for `COc1ccc2c(C)cc(N/N=C/c3ccc(OC)c4ccccc34)nc2c1`, the TGI in assay [1] is 41.1 µM; in assay [2], 42.2 µM; in [3], 7.47 µM; in [4], 26.4 µM; in assay [5], 37.2 µM; in [6] it was 9.02 µM. The TGI in assay [7] was 30.3 µM; in [8] it was 29.1 µM; in assay [9], 32.7 µM.

As for `Nc1ccccc1C(=O)CC1OC(=O)c2ccccc21` (stereo unspecified), the TGI is above 100 µM in assay [1]; above 100 µM in assay [2]; above 100 µM in assay [4]; 88 µM in [5]; above 100 µM in assay [6]; above 100 µM in [8]. In addition, the TGI in assay [10] and in assay [9] was above 100 µM in each case.

For `C=C1C(O)C2C(=C(CCc3ccccc3)C13CC3)C(=O)C(C)(CO)C2O` (stereo unspecified), the GI50 in [1], in [2], in assay [3], in [4], in [5] and in assay [6] was above 100 µM each time. Further, the GI50 in assay [7], in assay [8] and in assay [9] was above 100 µM in each case. For the same compound, the TGI in assay [1], in assay [2], in [3], in assay [4], in assay [5] and in [6] was above 100 µM in each case. Moreover, the TGI in assay [7], in [8] and in [9] was above 100 µM in each case.

On to `CCC[CH2][Sn]([CH2]CCC)([CH2]CCC)[O]c1ccc(Cl)cc1Cl`, for which the GI50 in assay [1] is 0.0977 µM; in assay [2], 0.152 µM; in assay [4], 0.135 µM; in assay [5], 0.152 µM; in assay [6], 0.128 µM; in assay [7] it was 0.138 µM. For the same compound, the GI50 in assay [8] was 0.14 µM; in assay [10] it was 0.0565 µM; in [9] it was 0.141 µM. In addition, the TGI in assay [1] was found to be 0.25 µM; in assay [2], 0.445 µM; in assay [4] it was 0.266 µM; in [5], 0.295 µM; in assay [6], 0.259 µM; in [7], 0.27 µM. Besides, the TGI is 0.298 µM in assay [8], 0.21 µM in [10] and 0.312 µM in assay [9].

(Values after PubChem BioAssay (NCI).)
